Reference: US5712269A, “M2 receptor ligand for the treatment of neurological disorders” (Pharmaceutical Discovery Corporation, priority 1995, dated 1998)
Entries after “also recorded” stand apart in the source; their conditions may differ.

How the values were obtained:
[1] = system: muscarinic cholinergic receptor; conditions: background statement; cited from earlier work
[2] = partition coefficient between 1-octanol and 0.1M phosphate; assay type: physicochemical; conditions: 1-octanol / 0.1M phosphate
M2 receptors = molecular target: T1, M2 receptors (Rattus norvegicus, UniProt P10980); assay: inhibition of [^3 H]AF-DX-384 binding to M2 receptors in the rat brain
T1 construct: from tissue; host or cells: rat brain
T1 sequence (P10980 1-466): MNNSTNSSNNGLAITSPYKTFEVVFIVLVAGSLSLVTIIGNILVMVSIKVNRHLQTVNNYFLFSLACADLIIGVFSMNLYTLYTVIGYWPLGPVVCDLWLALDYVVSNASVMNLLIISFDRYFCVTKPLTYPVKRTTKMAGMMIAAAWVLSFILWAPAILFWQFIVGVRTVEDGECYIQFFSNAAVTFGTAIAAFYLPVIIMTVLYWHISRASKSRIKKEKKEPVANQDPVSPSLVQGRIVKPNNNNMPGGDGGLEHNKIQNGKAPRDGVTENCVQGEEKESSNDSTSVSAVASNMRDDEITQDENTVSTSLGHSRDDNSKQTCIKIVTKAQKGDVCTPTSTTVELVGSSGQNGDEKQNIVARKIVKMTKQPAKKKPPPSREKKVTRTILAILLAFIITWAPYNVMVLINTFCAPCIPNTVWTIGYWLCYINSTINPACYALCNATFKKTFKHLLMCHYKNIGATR
From the text: FIG. 5 is a graph of the inhibition of [^3 H]AF-DX-384 binding to M2 receptors in the rat brain by PDC008.004, determined as % specific [^3 H]AFDX 384 binding versus log [PDC008.004] in nM.

mice [3] = assay: Watermaze behavioral studies; assay type: in vivo, mouse (male C57 BL/6); conditions: 10 mg/kg intraperitoneally
From the text: The following procedures are standard techniques routinely used by those skilled in the art (Morris, R. G. M., 1981)
Male C57 BL/6 mice, 30 g body weight. Minimum 50 animals. Obtainable from The Jackson Laboratories, Bar Harbor, Rt. 3, Me. 04609.
Circular water tank made of sturdy (10 mm thick, minimum) black (or very dark, opaque) lucite or other plastic. Diameter of the tank: 1 meter; Wall height: 50 cm. The tank must have a valve connected to a large diameter (min 1.5 cm inner) water filling/draining rubber hose (min. length 10 ft).
Two targets, one made of the same plastic as the water tank (the "black target"), and one made of translucent variety. Base made of heavy lucite (1 inch thick) shaped as a square with 10 inch sides. Height between the upper surface of the base and the lower surface of the target platform: 20 cm. Target platform support: 20 cm tall, circular rod (1 inch diam.). Circular target platform, 8 cm across, made of 0.5 cm thick plastic and covered with a non-skid material (surgical tape can be used) painted either black or white (depending on the target).
Regimen "A" consists of concurrent injections of either drug(s) or saline and swimming. Injections administered in a sequence: injection--24h--swim--2h--injection--24h--swim--2h--injection . . . etc., until a stable "time to target" plateau among the controls will be reached. […]

mice [4] = assay: behavioral observation after intraperitoneal injection; assay type: in vivo, mouse

partition coefficient (log P) [2]	Ki (M2 receptors) [nM]	Compound	effect on memory function [1]	movement pattern change in watermaze (mice [3]; 10 treated vs 10 control mice)	time required to find a hidden target (target latency) after the fourth trial (mice [3]; daily injections, mice)	motor activity after a single injection (mice [4]; 10 mg/kg, intraperitoneally, 24 hour period prior to behavioral testing)	signs observed in injected animals (mice [4]; 100 mg/kg intraperitoneally)	penetration into the intracerebral space (mice [4]; inferred from very swift central cholinergic mediated events, intraperitoneal)
–	–	CN1[C@@H]2C[C@@H](OC(=O)[C@H](CO)c3ccccc3)C[C@H]1[C@@H]1O[C@@H]12 [scopolamine]	impair memory function	–	–	–	–	–
0.16	–	CCN(CC)CCN(CC(=O)N1c2ccccc2C(=O)Nc2cccnc21)CC1CCCCC1.Cl [Compound 6, 11-[[[2-(Diethylamino)ethyl]cyclohexylmethylamino]-acetyl]-5,11-dihydro-6H-pyrido [2,3-b][1,4]-benzodiazepin-6-one hydrochloride salt]	–	–	–	–	–	–
0.78±0.18	422	CCN(CC)CCN(CC(=O)N1c2ccccc2C(=O)Nc2cccnc21)CC1CCCCC1 [PDC 008.004, 11-[[[2-(diethylamino)ethyl]cyclohexylmethylamino]-acetyl]-5,11-dihydro-6H-pyrido [2,3-b][1,4]-benzodiazepin-6-one]	–	substantial and significant (P>0.01) movement pattern change; also recorded: rapid shift from thygmotactic (wall-hugging) to center crossing and center crossing-goal oriented behavior	substantial statistically significant (P<0.05) decrease	increased motor activity	presence of dyskinesia, ataxia, and absence of flaccid paralysis	rapid penetration into the intracerebral space
